Laboratory results reported in patent US20210038559A1, “CANNABINOIDS AND DERIVATIVES FOR PROMOTING IMMUNOGENICITY OF TUMOR AND INFECTED CELLS” (priority 2018, published 2021).
Where a name gives a salt, the structure may show the parent alone. Read-outs that look alike come from different tables or passages of the source.

Tested on: MHC-I expression by COLO 205 cells
Assay: cells
Assay type: cell-based, human
Settings: for fold induction at 35 µM: Homo sapiens, COLO 205, 48 h, read-out: Induction Fold
Experimental: A panel of synthetic cannabinoids (Cayman Chemical, #9002891) was tested for MHC class I-inducing capability in COLO 205 cells as described above. COLO 205 cells were treated with the compounds at a concentration of 35 μM and evaluated for cell surface MHC class I expression after 48 hours. Cells were harvested, stained with MHC-I mAb W6/32 (Thermo Fisher). MHC-I expression was determined by flow cytometry.

[1] = MHC-I expression, COLO 205 cells, compounds at 35 μM, 48 hours, flow cytometry (W6/32)

SMILES | fold induction at 35 µM [1] | further results
CCCCCn1cc(C(=O)c2cccc3ccccc23)cc1-c1ccccc1F [Example 85, [5-(2-fluorophenyl)-1-pentyl-1H-pyrrol-3-yl]-1-naphthalenyl-methanone] | – | Induction Fold: 2.52 Fold
CCCCCn1cc(C(=O)Cc2cccc(Cl)c2)c2ccccc21 [Example 86, 2-(3-chlorophenyl)-1-(1-pentyl-1H-indol-3-yl)-ethanone] | 2.51 | –
CCCCCn1cc(C(=O)c2cccc3cccc(Br)c23)c2ccccc21 [Example 87, (8-bromonaphthalen-1-yl)(1-pentyl-1H-indol-3-yl)methanone] | 2.51 | –
CCCCCn1cc(C(=O)NC(C(N)=O)C(C)(C)C)c2ccccc21 (centres unmarked) [Example 88, N-(1-amino-3,3-dimethyl-1-oxobutan-2-yl)-1-pentyl-1H-indole-3-carboxamide] | 2.5 | –
CCCCCn1cc(C(=O)c2c(CC)ccc3ccccc23)c2ccccc21 [Example 89, (2-ethylnaphthalen-1-yl)(1-pentyl-1H-indol-3-yl)methanone] | 2.5 | –
CCCCCn1cc(C(=O)c2c(OC)ccc3ccccc23)c2ccccc21 [Example 90, (2-methoxy-1-naphthalenyl)(1-pentyl-1H-indol-3-yl)-methanone] | 2.5 | –
CCCCCn1cc(C(=O)NCc2ccccc2)c2ccccc21 [Example 91, 1-pentyl-N-(phenylmethyl)-1H-indole-3-carboxamide] | 2.48 | –
O=C(Oc1ccnc2ccccc12)c1cn(CCCCCF)c2ccccc12 [Example 92, quinolin-4-yl 1-(5-fluoropentyl)-1H-indole-3-carboxylate] | 2.47 | –
CN1CCCCC(n2cc(C(=O)C34CC5CC(CC(C5)C3)C4)c3ccccc32)C1 (centres unmarked) [Example 93, (3,5,7)-adamantan-1-yl(1-(1-methylazepan-3-yl)-1H-indol-3-yl)methanone] | – | Induction Fold [1]: 2.46 Fold
CCCCCn1cc(C(=O)C2C(C)(C)C2(C)C)c2ccccc21 [Example 94, (1-pentyl-1H-indol-3-yl)(2,2,3,3-tetramethylcyclopropyl)-methanone] | 2.45 | –
COCCn1c(C)c(C)sc1=NC(=O)C1C(C)(C)C1(C)C [Example 95, [N(Z)]-N-[3-(2-methoxyethyl)-4,5-dimethyl-2(3H)-thiazolylidene]-2,2,3,3-tetramethyl-cyclopropanecarboxamide] | – | Induction Fold [1]: 2.44 Fold
CC(C)[C@H](NC(=O)c1cn(CC2CCCCC2)c2ccccc12)C(N)=O [Example 96, (S)-N-(1-amino-3-methyl-1-oxobutan-2-yl)-1-(cyclohexylmethyl)-1H-indole-3-carboxamide] | 2.44 | –
O=C(c1cccc2ccccc12)c1nn(CCCCCBr)c2ccccc12 [Example 97, (1-(5-bromopentyl)-1H-indazol-3-yl)(naphthalen-1-yl)methanone] | 2.44 | –
CCCCCn1c(C)c(C(=O)c2cccc3ccccc23)c2ccccc21 [Example 98, (2-methyl-1-pentyl-1H-indol-3-yl)-1-naphthalenyl-methanone] | – | Induction Fold [1]: 2.43 Fold
CCCCCn1cc(C(=O)Oc2cccc3cnccc23)c2ccccc21 [Example 99, isoquinolin-5-yl 1-pentyl-1H-indole-3-carboxylate] | 2.43 | –
CCCCCn1nc(C(=O)N[C@H](C(N)=O)C(C)C)c2ccccc21 [Example 100, (S)-N-(1-amino-3-methyl-1-oxobutan-2-yl)-1-pentyl-1H-indazole-3-carboxamide] | 2.43 | –
CCCCCn1cc(C(=O)Cc2ccccc2C)c2ccccc21 [Example 101, 2-(2-methylphenyl)-1-(1-pentyl-1H-indol-3-yl)-ethanone] | 2.42 | –
CC(F)CCCn1cc(C(=O)Oc2cccc3cccnc23)c2ccccc21 (centres unmarked) [Example 102, quinolin-8-yl 1-(4-fluoropentyl)-1H-indole-3-carboxylate] | 2.41 | –
CCC(C)(C)n1cc(C(=O)c2cccc3ccccc23)c2ccccc21 [Example 103, naphthalen-1-yl(1-(tert-pentyl)-1H-indol-3-yl)methanone] | 2.41 | –
CCCC(F)Cn1cc(C(=O)c2cccc3ccccc23)c2ccccc21 (centres unmarked) [Example 104, (1-(2-fluoropentyl)-1H-indol-3-yl)(naphthalen-1-yl)methanone] | 2.41 | –
O=C(Oc1cccc2cnccc12)c1cn(CCCCCF)c2ccccc12 [Example 105, isoquinolin-5-yl 1-(5-fluoropentyl)-1H-indole-3-carboxylate] | 2.4 | –
CCCCCn1cc(C(=O)Cc2ccccc2OC)c2ccccc21 [Example 106, 1-(1-pentyl-1H-indol-3-yl)-2-(2-methoxyphenyl)-ethanone] | 2.39 | –

SMILES | fold induction at 35 µM [1] | further results
CCCCCn1cc(C(=O)NC23CC4CC(CC(C4)C2)C3)c2ccccc21 [Example 108, 1-pentyl-N-tricyclo[3.3.1.1]dec-1-yl-1H-indole-3-carboxamide] | – | Induction Fold: 2.38 Fold
CC1(C)C(C(=O)c2cn(CCCC(F)(F)F)c3ccccc23)C1(C)C [Example 110, (2,2,3,3-tetramethylcyclopropyl)[1-(4,4,4-trifluorobutyl)-1H-indol-3-yl]-methanone] | 2.37 | –
CC1(C)C(C(=O)N/N=C2\C(=O)N(CCCCCF)c3ccccc32)C1(C)C [Example 111, 2,2,3,3-tetramethyl-cyclopropanecarboxylic acid (2Z)-2-[1-(5-fluoropentyl)-1,2-dihydro-2-oxo-3H-indol-3-ylidene]hydrazide] | 2.37 | –
O=C(c1ccc(F)c2ccccc12)c1cn(CCCCCF)c2ccccc12 [Example 112, (4-fluoro-1-naphthalenyl)[1-(5-fluoropentyl)-1H-indol-3-yl]-methanone] | 2.37 | –
CC(Cl)CCCn1cc(C(=O)C2C(C)(C)C2(C)C)c2ccccc21 (centres unmarked) [Example 113, (1-(4-chloropentyl)-1H-indol-3-yl)(2,2,3,3-tetramethylcyclopropyl)methanone] | 2.36 | –
CCC(Cl)CCn1cc(C(=O)c2cccc3ccccc23)c2ccccc21 (centres unmarked) [Example 114, (1-(3-chloropentyl)-1H-indol-3-yl)(naphthalen-1-yl)methanone] | 2.35 | –
CCCCCn1cc(C(=O)c2cccc3cccc(CC)c23)c2ccccc21 [Example 115, (8-ethylnaphthalen-1-yl)(1-pentyl-1H-indol-3-yl)methanone] | 2.35 | –
O=C(c1cccnc1)c1cn(CCCCCF)c2ccccc12 [Example 116, (1-(5-fluoropentyl)-1H-indol-3-yl)(pyridin-3-yl)methanone, monohydrochloride] | 2.34 | –
O=C(NC12CC3CC(CC(C3)C1)C2)c1nn(Cc2ccc(F)cc2)c2ccccc12 [Example 117, N-((3s,5s,7s)-adamantan-1-yl)-1-(4-fluorobenzyl)-1H-indazole-3-carboxamide] | – | Induction Fold [1]: 2.34 Fold
CCCCCCCn1cc(C(=O)C2C(C)(C)C2(C)C)c2ccccc21 [Example 118, (1-heptyl-1H-indol-3-yl)(2,2,3,3-tetramethylcyclopropyl)-methanone] | 2.33 | –
CC(C)(C)C(NC(=O)c1cc(-c2ccc(F)cc2)nn1CCCCCF)C(N)=O (centres unmarked) [Example 119, N-[1-(aminocarbonyl)-2,2-dimethylpropyl]-1-(5-fluoropentyl)-3-(4-fluorophenyl)-1H-pyrazole-5-carboxamide] | 2.33 | –
CCCCCn1cc(C(=O)Cc2ccccc2Br)c2ccccc21 [Example 120, 2-(2-bromophenyl)-1-(1-pentyl-1H-indol-3-yl)-ethanone] | 2.32 | –
COc1ccc2c(c1)c(CC(=O)N1CCOCC1)c(C)n2C(=O)c1ccc(Cl)cc1 [Example 121, 2-[1-(4-chlorobenzoyl)-5-methoxy-2-methyl-1H-indol-3-yl]-1-(4-morpholinyl)-ethanone] | 2.32 | –
CCCCn1c(C)c(C(=O)c2cccc3ccccc23)c2ccccc21 [Example 122, (1-butyl-2-methyl-1H-indol-3-yl)-1-naphthalenyl-methanone] | – | Induction Fold: 2.31 Fold
CCCCCn1c(C(=O)c2cccc3ccccc23)nc2ccccc21 [Example 123, naphthalen-1-yl(1-pentyl-1H-benzo[d]imidazol-2-yl)methanone] | 2.31 | –
O=C(Oc1cncc2ccccc12)c1cn(CC2CCCCC2)c2ccccc12 [Example 124, isoquinolin-4-yl 1-(cyclohexylmethyl)-1H-indole-3-carboxylate] | 2.3 | –
CCCCCCN1C(=O)/C(=N\NC(=O)c2ccccc2)c2ccccc21 [Example 125, (2Z)-2-(1-hexyl-1,2-dihydro-2-oxo-3H-indol-3-ylidene)hydrazide, benzoic acid] | – | Induction Fold [1]: 2.29 Fold
Cc1c(C(=O)C2C(C)(C)C2(C)C)c2ccccc2n1CCCCCF [Example 126, (1-(5-fluoropentyl)-2-methyl-1H-indol-3-yl)(2,2,3,3-tetramethylcyclopropyl)methanone] | 2.29 | –
CCC(C)n1cc(C(=O)c2cccc3ccccc23)c2ccccc21 (centres unmarked) [Example 127, (1-(sec-butyl)-1H-indol-3-yl)(naphthalen-1-yl)methanone] | 2.29 | –
CCC(F)CCn1cc(C(=O)c2cccc3ccccc23)c2ccccc21 (centres unmarked) [Example 128, (1-(3-fluoropentyl)-1H-indol-3-yl)(naphthalen-1-yl)methanone] | 2.28 | –
CCCCCn1cc(C(=O)c2ccc(OC)cc2)c2ccccc21 [Example 129, (4-methoxyphenyl)(1-pentyl-1H-indol-3-yl)methanone] | 2.27 | –
O=C(c1cccc(I)c1)c1cn(CCCCCF)c2ccccc12 [Example 130, (1-(5-fluoropentyl)-1H-indol-3-yl)(3-iodophenyl)methanone] | 2.26 | –
